In publication PMC8584349 (International Journal of Molecular Sciences, 2021):
Like-named read-outs stand apart in the source and are kept apart here.

Legend:
authentic HCoV-229E [1] = assay: microbe, parasite or virus in culture; format: cell-based; conditions: Human coronavirus 229E; Huh-7 cell line; cells pretreated with 25-HC 8–12 h; CCK-8; read-out: IC50, inhibition of authentic HCoV-229E infection
SARS-CoV-2 PsV [2] = assay: microbe, parasite or virus in culture; format: cell-based; conditions: Severe acute respiratory syndrome coronavirus 2; target cells pretreated with 25-HC 8–12 h; luciferase; read-out: IC50, inhibition of SARS-CoV-2 PsV infection
SARS-CoV PsV [3] = assay: microbe, parasite or virus in culture; format: cell-based; conditions: Severe acute respiratory syndrome coronavirus, read-out: IC50, inhibition of SARS-CoV PsV infection
SARS-CoV-2 PsV [4] = system: SARS-CoV-2 PsV
MERS-CoV PsV [5] = conditions: in 25-HC/EK1 combination versus alone
SARS-CoV-2 PsV [6] = assay: microbe, parasite or virus in culture
MERS-CoV PsV [7] = assay: microbe, parasite or virus in culture; conditions: Middle East respiratory syndrome-related coronavirus
authentic HCoV-OC43 = assay: Authentic virus inhibition assay, HCoV-OC43 in RD cells; format: cell-based; conditions: RD cell line, CCK8, triplicate, repeated twice, read-out: IC50, inhibition of HCoV-OC43 replication
Procedure: (§1) Inhibition of authentic coronaviruses was performed as previously reported. Briefly, authentic HCoV-OC43 or HCoV-229E was coincubated with a test peptide at different concentrations at 37 °C for 30 min. Then, these authentic virus–peptide mixtures were added into target cells in a 96-well plate (Huh-7 cell line for HCoV-229E, RD cell line for HCoV-OC43). CCK8 solution was used to assess virus-induced cytopathy when the cytopathic effect (CPE) of DMSO-treated target cells was clear and the IC50 value was calculated.

authentic HCoV-229E [8] = assay: Authentic virus inhibition assay, HCoV-229E in Huh-7 cells; format: cell-based; conditions: Huh-7 cell line, CCK8, triplicate, repeated twice, read-out: IC50, inhibition of HCoV-229E replication
Procedure: as §1

SARS-CoV-2 VOC PsVs = conditions: 12 h
SARS-CoV PsV [9] = conditions: 12 h

Structure (SMILES) | IC50 (authentic HCoV-229E [1]) [µM] | IC50 (SARS-CoV-2 PsV [2]) [µM] | IC50 (SARS-CoV PsV [3]) [µM] | dose reduction (SARS-CoV-2 PsV [4]; SARS-CoV-2 PsV, in 25-HC/EK1 combination versus alone) [fold] | dose reduction (MERS-CoV PsV [5]) [fold] | IC50 (SARS-CoV-2 PsV [6]; Severe acute respiratory syndrome coronavirus 2, read-out: IC50, tested alone) [µM] | IC50 (SARS-CoV-2 PsV [6]; Severe acute respiratory syndrome coronavirus 2, read-out: IC50, tested in EK1/25-HC combination) [µM] | IC50 (MERS-CoV PsV [7]; read-out: IC50, tested alone) [µM] | IC50 (MERS-CoV PsV [7]; read-out: IC50, tested in EK1/25-HC combination) [µM] | IC50 (authentic HCoV-OC43) [µM] | IC50 (authentic HCoV-229E [8]) [µM] | IC50 (SARS-CoV-2 PsV [4]; PsV, 12 h) [µM] | IC50 (SARS-CoV-2 VOC PsVs) [µM] | IC50 (SARS-CoV PsV [9]) [µM]
C[C@H](CCCC(C)(C)O)[C@H]1CC[C@H]2[C@@H]3CC=C4C[C@@H](O)CC[C@]4(C)[C@H]3CC[C@]12C [25-HC, 25-Hydroxycholesterol] | 5.35 | 4.11 | 2.79 | 3 | 4 | 9.3 | 3.7 | 6.8 | 1.6 | – | – | – | – | –
CC[C@H](C)[C@H](NC(=O)[C@H](C)NC(=O)[C@H](CCC(=O)O)NC(=O)[C@H](CCC(=O)O)NC(=O)[C@H](CC(C)C)NC(=O)[C@H](CCCCN)NC(=O)[C@H](CCCCN)NC(=O)[C@H](CCSC)NC(=O)[C@H](CCC(=O)O)NC(=O)[C@H](Cc1ccc(O)cc1)NC(=O)[C@H](CCC(=O)O)NC(=O)[C@H](CC(C)C)NC(=O)[C@H](CC(=O)O)NC(=O)[C@H](CC(C)C)NC(=O)[C@H](Cc1ccccc1)NC(=O)[C@@H](NC(=O)[C@@H](NC(=O)[C@H](CC(N)=O)NC(=O)[C@@H](NC(=O)[C@H](CCC(N)=O)NC(=O)[C@H](CC(=O)O)NC(=O)[C@H](CC(C)C)NC(=O)[C@@H](N)CO)[C@@H](C)CC)C(C)C)[C@@H](C)O)C(=O)N[C@@H](CCCCN)C(=O)N[C@@H](CCCCN)C(=O)N[C@@H](CC(C)C)C(=O)N[C@@H](CCC(=O)O)C(=O)N[C@@H](CCC(=O)O)C(=O)N[C@@H](CO)C(=O)N[C@@H](Cc1ccc(O)cc1)C(=O)N[C@H](C(=O)N[C@@H](CC(=O)O)C(=O)N[C@@H](CC(C)C)C(=O)N[C@@H](CCCCN)C(=O)N[C@@H](CCC(=O)O)C(=O)N[C@@H](CC(C)C)C(=O)O)[C@@H](C)CC [EK1] | – | – | – | – | – | – | – | – | – | 1.51 | 2.2 | 0.84 | 0.48 to 4.61 | 2.8
